From US9580437B2, “Triazolopyrimidine compounds and uses thereof” (Novartis AG, priority 2014, dated 2017)

Columns and labels:
EED (1-441)-His protein = EED (1-441)-His protein (Homo sapiens (Human), UniProt O75530); assay: EED-H3K27Me3 peptide competition binding assay by AlphaScreen; details: read-out: (a) IC50 EED Alphascreen binding Qualified
Text: EED-H3K27Me3 peptide competition binding assay by AlphaScreen (α-screen)

[1] = molecular target: wild type PRC2 (wtPRC2) complex (Homo sapiens (Human), UniProt O75530); assay: EED LC-MS assay; format: biochemical; details: read-out: (b) IC50 EED LC-MS Qualified
Chain of wild type PRC2 (wtPRC2) complex (O75530 whole entry): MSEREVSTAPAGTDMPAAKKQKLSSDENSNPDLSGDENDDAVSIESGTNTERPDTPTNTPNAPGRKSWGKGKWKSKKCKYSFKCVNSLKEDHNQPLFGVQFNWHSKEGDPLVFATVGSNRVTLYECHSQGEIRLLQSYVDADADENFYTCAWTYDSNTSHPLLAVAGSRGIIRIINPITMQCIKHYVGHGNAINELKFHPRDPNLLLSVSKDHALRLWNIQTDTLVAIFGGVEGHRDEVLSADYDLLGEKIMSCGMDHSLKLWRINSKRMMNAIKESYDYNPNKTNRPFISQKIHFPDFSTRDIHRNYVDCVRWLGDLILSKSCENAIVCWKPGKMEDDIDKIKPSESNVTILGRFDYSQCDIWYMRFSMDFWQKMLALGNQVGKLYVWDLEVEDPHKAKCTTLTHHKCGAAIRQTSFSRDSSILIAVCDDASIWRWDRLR
Chain of wild type PRC2 (wtPRC2) complex (Q15910 whole entry partner): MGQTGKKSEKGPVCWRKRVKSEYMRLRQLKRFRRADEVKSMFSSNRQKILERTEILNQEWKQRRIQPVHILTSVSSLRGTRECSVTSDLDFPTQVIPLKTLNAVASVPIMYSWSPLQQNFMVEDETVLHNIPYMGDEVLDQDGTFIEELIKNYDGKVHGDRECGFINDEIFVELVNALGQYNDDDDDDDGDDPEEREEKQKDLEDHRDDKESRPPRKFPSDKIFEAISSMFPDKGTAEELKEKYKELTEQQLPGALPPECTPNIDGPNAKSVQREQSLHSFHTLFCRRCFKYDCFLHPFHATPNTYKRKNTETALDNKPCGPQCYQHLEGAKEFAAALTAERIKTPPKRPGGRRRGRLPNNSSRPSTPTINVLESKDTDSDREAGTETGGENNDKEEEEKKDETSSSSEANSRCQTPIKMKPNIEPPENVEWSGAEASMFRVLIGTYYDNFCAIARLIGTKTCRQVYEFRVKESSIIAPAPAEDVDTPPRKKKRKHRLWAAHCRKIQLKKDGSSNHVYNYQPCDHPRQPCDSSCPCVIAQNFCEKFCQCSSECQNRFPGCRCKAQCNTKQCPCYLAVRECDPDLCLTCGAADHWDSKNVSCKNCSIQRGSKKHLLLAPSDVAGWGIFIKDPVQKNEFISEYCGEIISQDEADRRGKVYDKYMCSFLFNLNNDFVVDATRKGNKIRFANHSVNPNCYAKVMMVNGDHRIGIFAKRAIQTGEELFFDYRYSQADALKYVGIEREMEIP
Chain of wild type PRC2 (wtPRC2) complex (Q15022 whole entry partner): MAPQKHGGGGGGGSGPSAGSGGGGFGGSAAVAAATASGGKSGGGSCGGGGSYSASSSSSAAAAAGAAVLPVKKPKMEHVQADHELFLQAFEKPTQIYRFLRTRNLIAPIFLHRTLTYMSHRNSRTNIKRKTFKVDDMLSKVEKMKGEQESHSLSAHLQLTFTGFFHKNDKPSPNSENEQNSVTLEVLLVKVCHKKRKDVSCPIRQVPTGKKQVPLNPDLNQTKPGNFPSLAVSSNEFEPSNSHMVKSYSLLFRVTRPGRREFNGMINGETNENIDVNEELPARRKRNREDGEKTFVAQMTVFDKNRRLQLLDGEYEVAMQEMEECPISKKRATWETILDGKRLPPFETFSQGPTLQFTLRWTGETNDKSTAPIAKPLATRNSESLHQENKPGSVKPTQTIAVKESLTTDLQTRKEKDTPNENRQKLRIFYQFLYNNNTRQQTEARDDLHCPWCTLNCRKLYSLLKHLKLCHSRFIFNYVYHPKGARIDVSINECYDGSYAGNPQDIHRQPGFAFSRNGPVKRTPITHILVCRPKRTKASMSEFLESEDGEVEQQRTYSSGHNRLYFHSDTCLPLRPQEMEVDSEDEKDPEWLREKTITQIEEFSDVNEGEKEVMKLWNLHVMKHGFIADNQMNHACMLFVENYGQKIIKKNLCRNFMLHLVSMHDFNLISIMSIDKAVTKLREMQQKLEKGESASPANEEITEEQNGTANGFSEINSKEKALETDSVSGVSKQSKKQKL
Protocol: A 6 μL solution of 3 μM of the peptide substrate H3K27Me0 (histone H3[21-44]-biotin) in reaction buffer was added to initiate each reaction. […] ELISA (H3K27 Methylation) Assay

Chain of EED (1-441)-His protein (O75530 whole entry): as the sequence (O75530 whole entry) above

Row | SMILES | IC50 (EED (1-441)-His protein) [nM] | IC50 [1] [nM]
1 | Cc1nn(C2CC2)c(C)c1-c1cnc(NCc2c(F)ccc3c2CCO3)n2cnnc12 [Example 179, 8-(1-cyclopropyl-3,5-dimethyl-1H-pyrazol-4-yl)-N-((5-fluoro-2,3-dihydrobenzofuran-4-yl)methyl)-[1,2,4]triazolo[4,3-c]pyrimidin-5-amine] | 12.4 | 16.1
2 | Cc1c(-c2cnc(NCc3c(F)ccc4c3CCO4)n3cnnc23)ccnc1F [Example 180, N-((5-fluoro-2,3-dihydrobenzofuran-4-yl)methyl)-8-(2-fluoro-3-methylpyridin-4-yl)-[1,2,4]triazolo[4,3-c]pyrimidin-5-amine] | 7.3 | 7.9
3 | Cc1cnc(F)cc1-c1cnc(NCc2c(F)ccc3c2CCO3)n2cnnc12 [Example 183, N-((5-fluoro-2,3-dihydrobenzofuran-4-yl)methyl)-8-(2-fluoro-5-methylpyridin-4-yl)-[1,2,4]triazolo[4,3-c]pyrimidin-5-amine] | 4.8 | 8.1
4 | Cc1cnc(C(F)(F)F)cc1-c1cnc(NCc2c(F)ccc3c2CCO3)n2cnnc12 [Example 184, N-((5-fluoro-2,3-dihydrobenzofuran-4-yl)methyl)-8-(5-methyl-2-(trifluoromethyl)pyridin-4-yl)-[1,2,4]triazolo[4,3-c]pyrimidin-5-amine] | 5.4 | 13.2
5 | Fc1ccc2c(c1CNc1ncc(-c3ccnc(C(F)(F)F)c3)c3nncn13)CCO2 [Example 185, N-((5-fluoro-2,3-dihydrobenzofuran-4-yl)methyl)-8-(2-(trifluoromethyl)pyridin-4-yl)-[1,2,4]triazolo[4,3-c]pyrimidin-5-amine] | 4.4 | 6.7
6 | Cc1nn(C[C@@H](C)O)c(C)c1-c1cnc(NCc2c(F)ccc3c2CCO3)n2cnnc12 [Example 186, (2R)-1-(4-(5-(((5-fluoro-2,3-dihydrobenzofuran-4-yl)methyl)amino)-[1,2,4]triazolo[4,3-c]pyrimidin-8-yl)-3,5-dimethyl-1H-pyrazol-1-yl)propan-2-ol] | 3.5 | 6
7 | Cc1nn(C[C@H](C)O)c(C)c1-c1cnc(NCc2c(F)ccc3c2CCO3)n2cnnc12 [Example 187, (2S)-1-(4-(5-(((5-fluoro-2,3-dihydrobenzofuran-4-yl)methyl)amino)-[1,2,4]triazolo[4,3-c]pyrimidin-8-yl)-3,5-dimethyl-1H-pyrazol-1-yl)propan-2-ol] | 8.2 | 12.5
8 | CCOc1cc(C)c(-c2cnc(NCc3c(F)ccc4c3CCO4)n3cnnc23)cn1 [Example 196, 8-(6-ethoxy-4-methylpyridin-3-yl)-N-((5-fluoro-2,3-dihydrobenzofuran-4-yl)methyl)-[1,2,4]triazolo[4,3-c]pyrimidin-5-amine] | 3.6 | 8.2
9 | Cc1cc(OC(F)F)ncc1-c1cnc(NCc2c(F)ccc3c2CCO3)n2cnnc12 [Example 197, 8-(6-(difluoromethoxy)-4-methylpyridin-3-yl)-N-((5-fluoro-2,3-dihydrobenzofuran-4-yl)methyl)-[1,2,4]triazolo[4,3-c]pyrimidin-5-amine] | 2.2 | 5.7
10 | Cc1cnc(C(F)F)cc1-c1cnc(NCc2c(F)ccc3c2CCO3)n2cnnc12 [Example 198, 8-(2-(difluoromethyl)-5-methylpyridin-4-yl)-N-((5-fluoro-2,3-dihydrobenzofuran-4-yl)methyl)-[1,2,4]triazolo[4,3-c]pyrimidin-5-amine] | 4.4 | 17.3
11 | Cc1ccc(-c2cnc(NCc3c(F)ccc4c3CCO4)n3cnnc23)c(C(F)F)n1 [Example 201, 8-(2-(difluoromethyl)-6-methylpyridin-3-yl)-N-((5-fluoro-2,3-dihydrobenzofuran-4-yl)methyl)-[1,2,4]triazolo[4,3-c]pyrimidin-5-amine] | 5.9 | 7.3
12 | Fc1ccc2c(c1CNc1ncc(-c3ccnnc3)c3nncn13)CCO2 [Example 202, N-((5-fluoro-2,3-dihydrobenzofuran-4-yl)methyl)-8-(pyridazin-4-yl)-[1,2,4]triazolo[4,3-c]pyrimidin-5-amine] | 9.6 | 18.7
13 | Cc1ncccc1-c1c(C)nc(NCc2c(F)ccc3c2CCO3)n2cnnc12 [Example 203, N-((5-fluoro-2,3-dihydrobenzofuran-4-yl)methyl)-7-methyl-8-(2-methylpyridin-3-yl)-[1,2,4]triazolo[4,3-c]pyrimidin-5-amine] | 42.4 | 338

More lines, in order of falling IC50 (EED (1-441)-His protein), values ahead:

Row | IC50 (EED (1-441)-His protein) [nM] | IC50 [1] [nM] | SMILES
14 | 10.6 | 19.3 | Cc1c(-c2cnc(NCc3c(F)ccc4c3CCO4)n3cnnc23)ccc[n+]1[O-] [Example 204, 3-(5-(((5-fluoro-2,3-dihydrobenzofuran-4-yl)methyl)amino)-[1,2,4]triazolo[4,3-c]pyrimidin-8-yl)-2-methylpyridine 1-oxide]
15 | 7.5 | 9.5 | Cn1cc(-c2cnc(NCc3c(F)ccc4c3CCO4)n3cnnc23)c(C(F)F)n1 [Example 200, 8-(3-(difluoromethyl)-1-methyl-1H-pyrazol-4-yl)-N-((5-fluoro-2,3-dihydrobenzofuran-4-yl)methyl)-[1,2,4]triazolo[4,3-c]pyrimidin-5-amine]
16 | 7.3 | 8.2 | Fc1ccc2c(c1CNc1ncc(-c3cnccn3)c3nncn13)CCO2 [Example 205, N-((5-fluoro-2,3-dihydrobenzofuran-4-yl)methyl)-8-(pyrazin-2-yl)-[1,2,4]triazolo[4,3-c]pyrimidin-5-amine]
17 | 5.9 | 11.6 | Cc1nn(C)cc1-c1cnc(NCc2c(F)ccc3c2CCO3)n2cnnc12 [Example 195, 8-(1,3-dimethyl-1H-pyrazol-4-yl)-N-((5-fluoro-2,3-dihydrobenzofuran-4-yl)methyl)-[1,2,4]triazolo[4,3-c]pyrimidin-5-amine]
18 | 5.4 | 7 | Cc1cc(C#N)ccc1-c1cnc(NCc2c(F)ccc3c2CCO3)n2cnnc12 [Example 178, 4-(5-(((5-fluoro-2,3-dihydrobenzofuran-4-yl)methyl)amino)-[1,2,4]triazolo[4,3-c]pyrimidin-8-yl)-3-methylbenzonitrile]
19 | 4.5 | 17.1 | Cc1nn(CCO)cc1-c1cnc(NCc2c(F)ccc3c2CCO3)n2cnnc12 [Example 190, 2-(4-(5-(((5-fluoro-2,3-dihydrobenzofuran-4-yl)methyl)amino)-[1,2,4]triazolo[4,3-c]pyrimidin-8-yl)-3-methyl-1H-pyrazol-1-yl)ethanol]
20 | 4.2 | 8.7 | Cc1c(-c2cnc(NCc3c(F)ccc4c3CCO4)n3cnnc23)cnn1CCO [Example 189, 2-(4-(5-(((5-fluoro-2,3-dihydrobenzofuran-4-yl)methyl)amino)-[1,2,4]triazolo[4,3-c]pyrimidin-8-yl)-5-methyl-1H-pyrazol-1-yl)ethanol]
21 | 4.2 | 7.2 | Cc1nc(C(=O)N(C)C)ccc1-c1cnc(NCc2c(F)ccc3c2CCO3)n2cnnc12 [Example 199, 5-(5-(((5-fluoro-2,3-dihydrobenzofuran-4-yl)methyl)amino)-[1,2,4]triazolo[4,3-c]pyrimidin-8-yl)-N,N,6-trimethylpicolinamide]
22 | 4 | 13 | FCc1ncccc1-c1cnc(NCc2c(F)ccc3c2CCO3)n2cnnc12 [Example 193, N-((5-fluoro-2,3-dihydrobenzofuran-4-yl)methyl)-8-(2-(fluoromethyl)pyridin-3-yl)-[1,2,4]triazolo[4,3-c]pyrimidin-5-amine]
23 | 3.8 | 4.4 | Cc1nccc(-c2cnc(NCc3c(F)ccc4c3CCO4)n3cnnc23)c1C [Example 177, 8-(2,3-dimethylpyridin-4-yl)-N-((5-fluoro-2,3-dihydrobenzofuran-4-yl)methyl)-[1,2,4]triazolo[4,3-c]pyrimidin-5-amine]
24 | 3.8 | 13.1 | Fc1ccc2c(c1CNc1ncc(-c3cncnc3C(F)F)c3nncn13)CCO2 [Example 191, 8-(4-(difluoromethyl)pyrimidin-5-yl)-N-((5-fluoro-2,3-dihydrobenzofuran-4-yl)methyl)-[1,2,4]triazolo[4,3-c]pyrimidin-5-amine]
25 | 3.5 | 12.6 | Fc1ccc2c(c1CNc1ncc(-c3ccnn3C3CC3)c3nncn13)CCO2 [Example 192, 8-(1-cyclopropyl-1H-pyrazol-5-yl)-N-((5-fluoro-2,3-dihydrobenzofuran-4-yl)methyl)-[1,2,4]triazolo[4,3-c]pyrimidin-5-amine]
26 | 3.1 | 5.6 | Cc1c(-c2cnc(NCc3c(F)ccc4c3CCO4)n3cnnc23)ccnc1CF [Example 182, N-((5-fluoro-2,3-dihydrobenzofuran-4-yl)methyl)-8-(2-(fluoromethyl)-3-methylpyridin-4-yl)-[1,2,4]triazolo[4,3-c]pyrimidin-5-amine]
27 | 2.6 | 6 | Cc1c(-c2cnc(NCc3c(F)ccc4c3CCO4)n3cnnc23)ccnc1C(F)F [Example 181, 8-(2-(difluoromethyl)-3-methylpyridin-4-yl)-N-((5-fluoro-2,3-dihydrobenzofuran-4-yl)methyl)-[1,2,4]triazolo[4,3-c]pyrimidin-5-amine]
28 | 2.4 | 7 | Cc1cc(-c2cnc(NCc3c(F)ccc4c3CCO4)n3cnnc23)c(C)cn1 [Example 194, 8-(2,5-dimethylpyridin-4-yl)-N-((5-fluoro-2,3-dihydrobenzofuran-4-yl)methyl)-[1,2,4]triazolo[4,3-c]pyrimidin-5-amine]
29 | 2.3 | 3.8 | Cc1c(-c2cnc(NCc3c(F)ccc4c3CCO4)n3cnnc23)cnn1C(C)C [Example 188, N-((5-fluoro-2,3-dihydrobenzofuran-4-yl)methyl)-8-(1-isopropyl-5-methyl-1H-pyrazol-4-yl)-[1,2,4]triazolo[4,3-c]pyrimidin-5-amine]
